Data from the supplement of paper PMC11451515.

Columns and labels:
Details in all cases: 48 h
SEM cells [1] = test: cell viability relative to DMSO control; higher = less cytotoxic
Method in brief: (§1)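 Three leukemia lines were tested: NOMO1 and SEM at 500 cells/well and P12-Ichikawa at 1000 cells/well. Each was adapted for at least four passages in each medium and seeded in 5 μl in 1536-well plates, and library compounds in DMSO were pin-dosed from 47 μM to 0.79 nM in 11 threefold steps. After 48 h at 37°C, CellTiter-Glo One luminescence was read. Viability is a percentage relative to DMSO wells on each plate, with cell-free wells as background.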

P12-Ichikawa [2] = test: as above
Method in brief: as §1

NOMO1 [3] = test: as above
Method in brief: as §1

SEM cells [4] = test: AUC of viability dose-response curve (% viability x log10 dose units); higher = less sensitive
Method in brief: (§2)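 Over 48 h at 37°C, leukemia cells in 1536-well plates (500 or 1000 cells/well), adapted to each medium, received library compounds in DMSO at 11 threefold doses from 47 μM to 0.79 nM. CellTiter-Glo One luminescence, normalised per plate to DMSO and cell-free wells, was fitted by a four-parameter log-logistic function of log10 dose. The area under the curve was then integrated by trapezoidal rule, after scaling curves above full viability and removing those that failed quality control.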

P12-Ichikawa [5] = test: as above
Method in brief: as §2

NOMO1 [6] = test: as above
Method in brief: as §2

CCC(=O)OC1CCC2C3CCC/4=C/C(=O)CC[C@@]4(C)C3CC[C@]12C (some centres undefined)
cell viability [%]
Details	NOMO1 [3]	P12-Ichikawa [2]	SEM cells [1]
HPLM + 10% dialyzed FBS, 0.000781 µM	89.8	116	104
HPLM + 10% dialyzed FBS, 0.00234 µM	112	120	107
HPLM + 10% dialyzed FBS, 0.00702 µM	128	126	110
HPLM + 10% dialyzed FBS, 0.0211 µM	120	129	118
HPLM + 10% dialyzed FBS, 0.0632 µM	122	126	132
HPLM + 10% dialyzed FBS, 0.19 µM	118	127	115
HPLM + 10% dialyzed FBS, 0.569 µM	130	132	128
HPLM + 10% dialyzed FBS, 1.71 µM	136	128	141
HPLM + 10% dialyzed FBS, 5.12 µM	136	129	123
HPLM + 10% dialyzed FBS, 15.4 µM	129	125	121
HPLM + 10% dialyzed FBS, 46.1 µM	135	117	137
RPMI 5 mM glucose + 10% FBS, 0.000781 µM	–	–	102
RPMI 5 mM glucose + 10% FBS, 0.00234 µM	–	–	107
RPMI 5 mM glucose + 10% FBS, 0.00702 µM	–	–	116
RPMI 5 mM glucose + 10% FBS, 0.0211 µM	–	–	119
RPMI 5 mM glucose + 10% FBS, 0.0632 µM	–	–	133
RPMI 5 mM glucose + 10% FBS, 0.19 µM	–	–	138
RPMI 5 mM glucose + 10% FBS, 0.569 µM	–	–	124
RPMI 5 mM glucose + 10% FBS, 1.71 µM	–	–	128
RPMI 5 mM glucose + 10% FBS, 5.12 µM	–	–	120
RPMI 5 mM glucose + 10% FBS, 15.4 µM	–	–	125
RPMI 5 mM glucose + 10% FBS, 46.1 µM	–	–	117
RPMI 5 mM glucose + 10% dialyzed FBS, 0.000781 µM	–	–	102
RPMI 5 mM glucose + 10% dialyzed FBS, 0.00234 µM	–	–	111
RPMI 5 mM glucose + 10% dialyzed FBS, 0.00702 µM	–	–	102
RPMI 5 mM glucose + 10% dialyzed FBS, 0.0211 µM	–	–	114
RPMI 5 mM glucose + 10% dialyzed FBS, 0.0632 µM	–	–	139
RPMI 5 mM glucose + 10% dialyzed FBS, 0.19 µM	–	–	114
RPMI 5 mM glucose + 10% dialyzed FBS, 0.569 µM	–	–	115
RPMI 5 mM glucose + 10% dialyzed FBS, 1.71 µM	–	–	137
RPMI 5 mM glucose + 10% dialyzed FBS, 5.12 µM	–	–	120
RPMI 5 mM glucose + 10% dialyzed FBS, 15.4 µM	–	–	127
RPMI 5 mM glucose + 10% dialyzed FBS, 46.1 µM	–	–	127

AUC of viability dose-response curve
Details	NOMO1 [6]	P12-Ichikawa [5]	SEM cells [4]
HPLM + 10% dialyzed FBS	457	471	450
RPMI 5 mM glucose + 10% FBS	456	473	460
RPMI 5 mM glucose + 10% dialyzed FBS	458	466	448

C=CCc1cc(OC)c(O)c(C(=O)NCCO)c1
cell viability [%]
Details	NOMO1 [3]	P12-Ichikawa [2]	SEM cells [1]
HPLM + 10% dialyzed FBS, 0.000781 µM	98.4	106	110
HPLM + 10% dialyzed FBS, 0.00234 µM	113	113	101
HPLM + 10% dialyzed FBS, 0.00702 µM	96	109	101
HPLM + 10% dialyzed FBS, 0.0211 µM	105	108	103
HPLM + 10% dialyzed FBS, 0.0632 µM	105	106	116
HPLM + 10% dialyzed FBS, 0.19 µM	113	109	98.7
HPLM + 10% dialyzed FBS, 0.569 µM	107	99.4	112
HPLM + 10% dialyzed FBS, 1.71 µM	106	105	92
HPLM + 10% dialyzed FBS, 5.12 µM	85.7	103	98.6
HPLM + 10% dialyzed FBS, 15.4 µM	81.4	93	69.3
HPLM + 10% dialyzed FBS, 46.1 µM	74.2	98.2	64.3
RPMI 5 mM glucose + 10% FBS, 0.000781 µM	95.3	99.6	97.4
RPMI 5 mM glucose + 10% FBS, 0.00234 µM	112	112	108
RPMI 5 mM glucose + 10% FBS, 0.00702 µM	103	95.4	108
RPMI 5 mM glucose + 10% FBS, 0.0211 µM	96.1	104	110
RPMI 5 mM glucose + 10% FBS, 0.0632 µM	101	113	102
RPMI 5 mM glucose + 10% FBS, 0.19 µM	101	100	112
RPMI 5 mM glucose + 10% FBS, 0.569 µM	96.1	103	98.1
RPMI 5 mM glucose + 10% FBS, 1.71 µM	106	95.4	88
RPMI 5 mM glucose + 10% FBS, 5.12 µM	93.4	101	99.2
RPMI 5 mM glucose + 10% FBS, 15.4 µM	101	93.7	77.1
RPMI 5 mM glucose + 10% FBS, 46.1 µM	87.1	89.4	68.6
RPMI 5 mM glucose + 10% dialyzed FBS, 0.000781 µM	98.5	98.9	110
RPMI 5 mM glucose + 10% dialyzed FBS, 0.00234 µM	99.5	108	83.8
RPMI 5 mM glucose + 10% dialyzed FBS, 0.00702 µM	104	104	99.1
RPMI 5 mM glucose + 10% dialyzed FBS, 0.0211 µM	106	104	102
RPMI 5 mM glucose + 10% dialyzed FBS, 0.0632 µM	109	103	105
RPMI 5 mM glucose + 10% dialyzed FBS, 0.19 µM	98.6	101	113
RPMI 5 mM glucose + 10% dialyzed FBS, 0.569 µM	89.7	105	105
RPMI 5 mM glucose + 10% dialyzed FBS, 1.71 µM	96.7	104	103
RPMI 5 mM glucose + 10% dialyzed FBS, 5.12 µM	87.7	84.4	96.6
RPMI 5 mM glucose + 10% dialyzed FBS, 15.4 µM	84	105	78.4
RPMI 5 mM glucose + 10% dialyzed FBS, 46.1 µM	79.5	94.1	66.8

AUC of viability dose-response curve
Details	NOMO1 [6]	P12-Ichikawa [5]	SEM cells [4]
HPLM + 10% dialyzed FBS	449	457	448
RPMI 5 mM glucose + 10% FBS	462	460	442
RPMI 5 mM glucose + 10% dialyzed FBS	446	466	454

Cc1cc(-c2nnc3n2CCCCC3)c(C)n1-c1ccccc1
cell viability [%]
Details	NOMO1 [3]	P12-Ichikawa [2]	SEM cells [1]
HPLM + 10% dialyzed FBS, 0.000781 µM	116	120	110
HPLM + 10% dialyzed FBS, 0.00234 µM	122	117	116
HPLM + 10% dialyzed FBS, 0.00702 µM	136	122	115
HPLM + 10% dialyzed FBS, 0.0211 µM	131	119	123
HPLM + 10% dialyzed FBS, 0.0632 µM	121	118	117
HPLM + 10% dialyzed FBS, 0.19 µM	125	116	118
HPLM + 10% dialyzed FBS, 0.569 µM	148	118	120
HPLM + 10% dialyzed FBS, 1.71 µM	132	117	119
HPLM + 10% dialyzed FBS, 5.12 µM	117	115	98.7
HPLM + 10% dialyzed FBS, 15.4 µM	120	117	117
HPLM + 10% dialyzed FBS, 46.1 µM	108	104	115
RPMI 5 mM glucose + 10% FBS, 0.000781 µM	112	–	53.2
RPMI 5 mM glucose + 10% FBS, 0.00234 µM	112	–	124
RPMI 5 mM glucose + 10% FBS, 0.00702 µM	109	–	103
RPMI 5 mM glucose + 10% FBS, 0.0211 µM	122	–	107
RPMI 5 mM glucose + 10% FBS, 0.0632 µM	115	–	95.6
RPMI 5 mM glucose + 10% FBS, 0.19 µM	120	–	107
RPMI 5 mM glucose + 10% FBS, 0.569 µM	118	–	124
RPMI 5 mM glucose + 10% FBS, 1.71 µM	114	–	126
RPMI 5 mM glucose + 10% FBS, 5.12 µM	117	–	109
RPMI 5 mM glucose + 10% FBS, 15.4 µM	116	–	115
RPMI 5 mM glucose + 10% FBS, 46.1 µM	110	–	102
RPMI 5 mM glucose + 10% dialyzed FBS, 0.000781 µM	115	125	113
RPMI 5 mM glucose + 10% dialyzed FBS, 0.00234 µM	120	119	114
RPMI 5 mM glucose + 10% dialyzed FBS, 0.00702 µM	110	118	140
RPMI 5 mM glucose + 10% dialyzed FBS, 0.0211 µM	114	125	131
RPMI 5 mM glucose + 10% dialyzed FBS, 0.0632 µM	124	118	95.3
RPMI 5 mM glucose + 10% dialyzed FBS, 0.19 µM	113	119	127
RPMI 5 mM glucose + 10% dialyzed FBS, 0.569 µM	116	124	136
RPMI 5 mM glucose + 10% dialyzed FBS, 1.71 µM	121	126	135
RPMI 5 mM glucose + 10% dialyzed FBS, 5.12 µM	111	122	114
RPMI 5 mM glucose + 10% dialyzed FBS, 15.4 µM	122	109	126
RPMI 5 mM glucose + 10% dialyzed FBS, 46.1 µM	120	111	107

AUC of viability dose-response curve
Details	NOMO1 [6]	P12-Ichikawa [5]	SEM cells [4]
HPLM + 10% dialyzed FBS	464	464	470
RPMI 5 mM glucose + 10% FBS	473	462	424
RPMI 5 mM glucose + 10% dialyzed FBS	470	470	472
